± gives the expanded uncertainty stated by the source.
Conditions: Liquid, Vibrating tube method

Cc1ccc(C)s1 [2,5-dimethylthiophene]
mass density [kg/m3]
Conditions | 283.15 K | 288.15 K | 293.15 K | 298.15 K | 303.15 K | 308.15 K
100 kPa | 995.51 ± 0.5 | 990.41 ± 0.5 | 985.3 ± 0.5 | 980.2 ± 0.5 | 975.1 ± 0.5 | 970 ± 0.5
2000 kPa | 996.96 ± 0.5 | 991.9 ± 0.5 | 986.82 ± 0.5 | 981.78 ± 0.5 | 976.72 ± 0.5 | 971.66 ± 0.5
5000 kPa | 999.21 ± 0.5 | 994.21 ± 0.5 | 989.21 ± 0.5 | 984.2 ± 0.5 | 979.23 ± 0.5 | 974.22 ± 0.5
7000 kPa | 1000.68 ± 0.5 | 995.72 ± 0.5 | 990.74 ± 0.5 | 985.8 ± 0.5 | 980.88 ± 0.5 | 975.91 ± 0.5
10000 kPa | 1002.83 ± 0.5 | 997.94 ± 0.5 | 993.02 ± 0.5 | 988.14 ± 0.5 | 983.27 ± 0.5 | 978.38 ± 0.5
15000 kPa | 1006.35 ± 0.5 | 1001.53 ± 0.5 | 996.71 ± 0.5 | 991.93 ± 0.5 | 987.17 ± 0.5 | 982.36 ± 0.5
20000 kPa | 1009.74 ± 0.5 | 1005.01 ± 0.5 | 1000.28 ± 0.5 | 995.59 ± 0.5 | 990.9 ± 0.5 | 986.2 ± 0.5
25000 kPa | 1013.04 ± 0.5 | 1008.38 ± 0.5 | 1003.72 ± 0.5 | 999.13 ± 0.5 | 994.52 ± 0.5 | 989.91 ± 0.5
30000 kPa | 1016.24 ± 0.5 | 1011.66 ± 0.5 | 1007.07 ± 0.5 | 1002.53 ± 0.5 | 998.02 ± 0.5 | 993.47 ± 0.5
35000 kPa | 1019.33 ± 0.5 | 1014.81 ± 0.5 | 1010.31 ± 0.5 | 1005.84 ± 0.5 | 1001.4 ± 0.5 | 996.93 ± 0.5
40000 kPa | 1022.34 ± 0.51 | 1017.89 ± 0.5 | 1013.45 ± 0.5 | 1009.04 ± 0.5 | 1004.69 ± 0.5 | 1000.28 ± 0.5
45000 kPa | 1025.27 ± 0.51 | 1020.88 ± 0.51 | 1016.49 ± 0.5 | 1012.17 ± 0.5 | 1007.85 ± 0.5 | 1003.53 ± 0.5
50000 kPa | 1028.12 ± 0.51 | 1023.78 ± 0.51 | 1019.47 ± 0.51 | 1015.2 ± 0.5 | 1010.94 ± 0.5 | 1006.66 ± 0.5
55000 kPa | 1030.9 ± 0.51 | 1026.62 ± 0.51 | 1022.35 ± 0.51 | 1018.14 ± 0.51 | 1013.93 ± 0.5 | 1009.75 ± 0.5
60000 kPa | 1033.6 ± 0.51 | 1029.38 ± 0.51 | 1025.15 ± 0.51 | 1021.01 ± 0.51 | 1016.85 ± 0.51 | 1012.72 ± 0.5
65000 kPa | 1036.24 ± 0.52 | 1032.06 ± 0.51 | 1027.88 ± 0.51 | 1023.8 ± 0.51 | 1019.68 ± 0.51 | 1015.59 ± 0.51
